Patent US20240400560A1, “BICYCLIC HETEROCYCLIC DERIVATIVE HAVING VIRAL GROWTH INHIBITORY ACTIVITY AND PHARMACEUTICAL COMPOSITION CONTAINING SAME” (Shionogi & Co., Ltd., priority 2021, published 2024)
pEC50, pIC50: −log10 of the molar value. Where two headings read alike, the source gives them in different places.

Tests used:
SARS-CoV-2 = experiment: Inhibitory activity of cytopathic effect (CPE) in HEK293T/ACE2-TMPRSS2 cells; assay type: cell-based
SARS-CoV-2 3CL protease = SARS-CoV-2 3CL protease (Severe acute respiratory syndrome coronavirus 2, UniProt P0DTD1); experiment: Inhibitory activity test against SARS-CoV-2 3CL proteases; assay type: biochemical
[1] = Severe acute respiratory syndrome coronavirus 2, HEK-293T, 72 h, 50% SARS-CoV-2 infected cell death inhibitory concentration, HEK293T/ACE2-TMPRSS2 cells, CellTiter-Glo 2.0 after 3 days culture, read-out: EC50
[2] = read-out: IC50 (50% SARS-CoV-2 3CL protease inhibitory concentration)
[3] = Severe acute respiratory syndrome coronavirus 2, HEK-293T, 72 h, HEK293T/ACE2-TMPRSS2 cells, cultured 3 days, CellTiter-Glo 2.0 luminescence, read-out: EC50 (50% SARS-CoV-2 infected cell death inhibitory concentration)
[4] = Severe acute respiratory syndrome coronavirus 2, HEK-293T, 72 h, read-out: EC50 (50% SARS-CoV-2 infected cell death inhibitory concentration)
[5] = IC50 (50% SARS-CoV-2 3CL protease inhibitory concentration)

| Structure (SMILES) | pIC50 (SARS-CoV-2 3CL protease; [2]) | pEC50 (SARS-CoV-2; [3]) | also measured |
| --- | --- | --- | --- |
| O=c1c2c(=O)n(-c3cnc4cc(F)ccn34)c(=O)n(-c3ccc(F)c(Cl)c3)c2cc2n1CC[C@@H]1CCCN21 [Compound I-0955] | 8.51 |  | pEC50 (SARS-CoV-2; [1]): 6.27 |
| COc1nc(N2CC[C@@H](OC)C2)cc2c1c(=O)n(-c1cnc3cc(F)ccn13)c(=O)n2-c1ccc(F)c(Cl)c1 [Compound I-0740] | > 7.00 | > 7.00 |  |
| Cn1cnc(Cn2c(=O)c3c4c(c(-c5cc(C#N)ccc5Cl)cc3n(Cc3cc(F)c(F)c(F)c3)c2=O)C(F)(F)CO4)n1 [Compound I-0866] | 8.19 |  | pEC50 (SARS-CoV-2; [1]): 7.81 |
| COc1nc(N2[C@@H]3CCC[C@H]2CNC3)cc2c1c(=O)n(-c1cnc3ccccn13)c(=O)n2Cc1cc(F)c(F)c(Cl)c1 [Compound I-0648] |  |  | pEC50 (SARS-CoV-2; [4]): > 7.00; pIC50 (SARS-CoV-2 3CL protease; [5]): > 7.00 |
| COc1nc(N2CCC(C)(O)C2)cc2c1c(=O)n(-c1cnc3cc(F)ccn13)c(=O)n2-c1ccc(F)c(Cl)c1 (stereo not drawn) [Compound I-1043] | > 7.00 | > 7.00 |  |
| COc1nc(N2CC[C@@H](O)C2)cc2c1c(=O)n(-c1cncc(F)c1)c(=O)n2-c1ccc(F)c(F)c1 [Compound I-1044] | > 7.00 | > 7.00 |  |
| COc1nc(N2CC(C#N)C2)cc2c1c(=O)n(-c1cnc3cc(F)ccn13)c(=O)n2-c1ccc(F)c(Cl)c1 [Compound I-1017] | > 7.00 | > 7.00 |  |
| [2H]C([2H])([2H])O[C@@H]1CCN(c2cc3c(c(OC)n2)c(=O)n(-c2cnc4cc(F)ccn24)c(=O)n3-c2ccc(F)c(Cl)c2)C1 [Compound I-0751] | > 7.00 | > 7.00 |  |
| COc1cc(-c2c(Cl)ccc3c2CCC(=O)N3C)cc2c1c(=O)n(Cc1ncn(C)n1)c(=O)n2Cc1cc(F)c(F)c(F)c1 [Compound I-0868] | 8.80 |  | pEC50 (SARS-CoV-2; [1]): 7.67 |
| COc1nc2c(=O)n(Cc3ncn(C)n3)c(=O)n(Cc3cc(Cl)c(F)cc3C)c2cc1-c1cc(C(C)(C)O)ccc1Cl [Compound I-0822] | > 7.00 | > 7.00 |  |
| COc1ccc(Cl)c(-c2cc3c(nc2OC)c(=O)n(Cc2ncn(C)n2)c(=O)n3Cc2cc(Cl)c(F)cc2C)n1 [Compound I-0821] | 8.00 |  | pEC50 (SARS-CoV-2; [1]): 7.42 |
| [2H]C([2H])([2H])O[C@@H]1CCN(c2cc3c(c(OC)n2)c(=O)n(-c2cncc(C(F)F)c2)c(=O)n3-c2ccc(F)c(Cl)c2)C1 [Compound I-0970] | > 7.00 | > 7.00 |  |
| COCCN(C)c1cc2c(c(OC)n1)c(=O)n(-c1cnc3cc(F)ccn13)c(=O)n2-c1ccc(F)c(Cl)c1 [Compound I-0653] | 7.85 |  | pEC50 (SARS-CoV-2; [1]): 7.94 |
| COc1nc2c(=O)n(Cc3ncn(C)n3)c(=O)n(Cc3cc(Cl)c(F)cc3C)c2cc1-c1ncc(F)cc1Cl [Compound I-0580] | > 7.00 | > 7.00 |  |
| Cn1cnc(Cn2c(=O)c3c4c(c(-c5cnccc5Cl)cc3n(Cc3cc(F)c(F)c(Cl)c3)c2=O)CCO4)n1 [Compound I-0563] | > 7.00 | > 7.00 |  |
| Cn1cnc(Cn2c(=O)c3nc(OCC#N)c(-c4cc(C#N)ccc4Cl)cc3n(Cc3cc(F)c(F)c(F)c3)c2=O)n1 [Compound I-0685] | 7.55 |  | pEC50 (SARS-CoV-2; [1]): 7.09 |
| Cn1cnc(Cn2c(=O)c3c4c(c(N5CCC(F)(F)CC5)cc3n(Cc3cc(F)c(F)c(F)c3)c2=O)CCO4)n1 [Compound I-0565] | > 7.00 | > 7.00 |  |
| CCNC(=O)[C@@H]1CCN(c2cc3c(c(OC)n2)c(=O)n(-c2cnc4cc(F)ccn24)c(=O)n3-c2ccc(F)c(Cl)c2)C1 [Compound I-0626] | 7.85 |  | pEC50 (SARS-CoV-2; [1]): 7.26 |
| COc1nc(N2CC[C@@H](O)C2)cc2c1c(=O)n(-c1cnc3cc(F)ccn13)c(=O)n2-c1ccc(F)c(Cl)c1 [Compound I-0745] | > 7.00 | > 7.00 |  |
| C=Cc1nc2c(=O)n(Cc3ncn(C)n3)c(=O)n(Cc3cc(F)c(F)c(F)c3)c2cc1-c1cc(C#N)ccc1Cl [Compound I-0705] | > 7.00 | > 7.00 |  |
| COc1nc(N2CC[C@@H](C(=O)N(C)C)C2)cc2c1c(=O)n(-c1cnc3cc(F)ccn13)c(=O)n2-c1ccc(F)c(Cl)c1 [Compound I-1045] | > 7.00 | > 7.00 |  |
| COc1nc(N2CC[C@@H](O)C2)cc2c1c(=O)n(-c1cncc(OCF)c1)c(=O)n2-c1ccc(F)c(F)c1 [Compound I-1025] | > 7.00 | > 7.00 |  |
| COc1nc2c(=O)n(Cc3ncn(C)n3)c(=O)n(Cc3cc(F)c(F)c(Cl)c3)c2cc1-c1nc(C(=O)NC2(C)COC2)ccc1Cl [Compound I-0886] | > 7.00 | > 7.00 |  |
| Cn1cnc(Cn2c(=O)c3c(=O)n(C)c(N4C[C@@H]5CC[C@H]4C5)cc3n(Cc3cc(F)c(F)c(Cl)c3)c2=O)n1 [Compound I-0930] | > 7.00 | 6.00 to 7.00 |  |

| Structure (SMILES) | pIC50 (SARS-CoV-2 3CL protease; [2]) | pEC50 (SARS-CoV-2; [3]) | also measured |
| --- | --- | --- | --- |
| COc1cc(-c2cc3c(C(F)(F)F)n[nH]c3cc2Cl)cc2c1c(=O)n(Cc1ncn(C)n1)c(=O)n2Cc1cc(F)c(F)c(F)c1 [Compound I-0875] | > 7.00 | > 7.00 |  |
| COc1nc2c(=O)n(-c3cnc4cc(F)ccn34)c(=O)n(Cc3cc(Cl)c(F)cc3C)c2cc1-c1cc(C(C)(C)O)ccc1Cl [Compound I-0843] | 8.13 |  | pEC50 (SARS-CoV-2; [1]): 7.14 |
| COc1cc(-c2cc(C#N)ccc2Cl)cc2c1c(=O)n(-c1cnc3ccccn13)c(=O)n2Cc1cc(F)c(F)c(F)c1 [Compound I-0661] | > 7.00 |  | pEC50 (SARS-CoV-2; HEK293T/ACE2-TMPRSS2 cells, cultured 3 days, CellTiter-Glo 2.0 luminescence, read-out: EC50 (50% SARS-CoV-2 infected cell death inhibitory concentration)): > 7.00 |
| COc1nc(N2CCC(F)(F)C2)cc2c1c(=O)n(-c1cncc(C#N)c1)c(=O)n2-c1ccc(F)c(Cl)c1 [Compound I-0977] | > 7.00 | > 7.00 |  |
| Cc1cnc2c3c(=O)n(Cc4ncn(C)n4)c(=O)n(Cc4cc(F)c(F)c(F)c4)c3cc(-c3cc(C#N)ccc3Cl)n12 [Compound I-0643] | 8.37 |  | pEC50 (SARS-CoV-2; [1]): 6.28 |
| [2H]C([2H])([2H])O[C@@H]1CCN(c2cc3c(c(OC)n2)c(=O)n(-c2cncc(C)c2)c(=O)n3-c2ccc(F)c(Cl)c2)C1 [Compound I-0937] | 8.89 |  | pEC50 (SARS-CoV-2; [1]): 8.25 |
| COc1nc(N2CC[C@@H](OC)C2)cc2c1c(=O)n(-c1cnc3cc(F)ccn13)c(=O)n2Cc1cc(F)c(F)c(Cl)c1 [Compound I-0735] | > 7.00 | > 7.00 |  |
| O=c1c2c(=O)n(-c3cnc4cc(F)ccn34)c(=O)n(-c3ccc(F)c(Cl)c3)c2cc2n1C[C@@H]1CCCN21 [Compound I-0628] | 7.59 |  | pEC50 (SARS-CoV-2; [1]): 6.18 |
| Cn1cnc(Cn2c(=O)c3c4nccnc4c(-c4c(F)cc(F)cc4F)cc3n(Cc3cc(F)c(F)c(Cl)c3)c2=O)n1 [Compound I-0571] | > 7.00 | > 7.00 |  |
| COc1nc(N2[C@@H]3CC[C@H]2COC3)cc2c1c(=O)n(-c1cnc3cc(F)ccn13)c(=O)n2-c1ccc(F)c(Cl)c1 [Compound I-1001] |  |  | pEC50 (SARS-CoV-2; [4]): > 7.00; pIC50 (SARS-CoV-2 3CL protease; [5]): > 7.00 |
| Cc1c(-c2cc(C#N)ccc2Cl)cc2c(c1F)c(=O)n(Cc1ncn(C)n1)c(=O)n2Cc1cc(F)c(F)c(Cl)c1 [Compound I-0637] | > 7.00 | > 7.00 |  |
| COc1nc(NC2CC2)cc2c1c(=O)n(-c1cnc3cc(F)ccn13)c(=O)n2-c1ccc(F)c(Cl)c1 [Compound I-1029] | > 7.00 | > 7.00 |  |
| COc1nc(N2CC[C@@H](F)C2)cc2c1c(=O)n(Cc1ncn(C)n1)c(=O)n2-c1cc(F)c(Cl)c(Cl)c1 [Compound I-0802] | 7.62 |  | pEC50 (SARS-CoV-2; [1]): 7.95 |
| Cn1cnc(Cn2c(=O)c3c4nccnc4c(N4CCC(F)(F)C4)cc3n(Cc3cc(F)c(F)c(Cl)c3)c2=O)n1 [Compound I-0813] | > 7.00 | > 7.00 |  |
| COc1nc(N2CC[C@@H](OC)C2)cc2c1c(=O)n(-c1cnc3cc(F)ccn13)c(=O)n2Cc1cc(F)c(F)c(F)c1 [Compound I-0731] | > 7.00 | > 7.00 |  |
| COc1nc(N2[C@@H]3CC[C@H]2CNC3)cc2c1c(=O)n(-c1cc(C)cnn1)c(=O)n2Cc1cc(F)c(F)c(F)c1 [Compound I-0926] |  |  | pEC50 (SARS-CoV-2; Severe acute respiratory syndrome coronavirus 2, HEK-293T, 72 h): 6.97; pIC50 (SARS-CoV-2 3CL protease; [5]): 8.29 |
| COc1nc(N2CCC(O)(CF)C2)cc2c1c(=O)n(-c1cnc3cc(F)ccn13)c(=O)n2-c1ccc(F)c(Cl)c1 (stereo not drawn) [Compound I-1037] | > 7.00 | > 7.00 |  |
| COc1nc(N2CCC(F)(F)C2)cc2c1c(=O)n(-c1cnc3ccc(C#N)cn13)c(=O)n2-c1ccc(F)c(Cl)c1 [Compound I-0654] | > 7.00 | > 7.00 |  |
| [2H]C([2H])([2H])O[C@@H]1CCN(c2cc3c(c(OC)n2)c(=O)n(-c2cnc4cc(F)ccn24)c(=O)n3-c2cc(F)c(F)c(Cl)c2)C1 [Compound I-0942] | > 7.00 | > 7.00 |  |
| COc1nc(N2CCC(n3cccn3)C2)cc2c1c(=O)n(-c1cnc3cc(F)ccn13)c(=O)n2-c1ccc(F)c(Cl)c1 (stereo not drawn) [Compound I-0975] | > 7.00 | > 7.00 |  |
| COc1nc(N(C)CC(F)(F)F)cc2c1c(=O)n(-c1cnc3cc(F)ccn13)c(=O)n2-c1ccc(F)c(Cl)c1 [Compound I-1006] | > 7.00 | > 7.00 |  |
| CCNc1cc2c(c(OC)n1)c(=O)n(-c1cncc(Cl)c1)c(=O)n2-c1ccc(F)c(Cl)c1 [Compound I-0966] | 8.42 |  | pEC50 (SARS-CoV-2; [1]): 8.05 |
| Cn1cnc(Cn2c(=O)c3c4nccnc4c(-c4cc(C#N)ccc4Cl)cc3n(Cc3cc(F)c(F)c(Cl)c3)c2=O)n1 [Compound I-0809] | > 7.00 | > 7.00 |  |
| COc1nc(N2C[C@@H](F)[C@@H](F)C2)cc2c1c(=O)n(-c1cnc3cc(F)ccn13)c(=O)n2-c1ccc(F)c(C(F)F)c1 [Compound I-0961] | 8.47 |  | pEC50 (SARS-CoV-2; [1]): 8.24 |
